Measurements: patent publication US20210395210A1, “INHIBITION OF BACTERIAL CHAPERONIN SYSTEMS” (THE TRUSTEES OF INDIANA UNIVERSITY, priority 2018, published 2021)
Like-named read-outs stand apart in the source and are kept apart here.

Assays:
native MDH = target: T1, native MDH (Sus scrofa, UniProt P00346); assay: Counter-screen for inhibition of native MDH enzymatic activity; assay type: biochemical, pig
T1 construct: soluble pig heart MDH from Roche, product #10127248001; purchased Roche 10127248001; host or cells: pig heart
T1 sequence (P00346 25-338): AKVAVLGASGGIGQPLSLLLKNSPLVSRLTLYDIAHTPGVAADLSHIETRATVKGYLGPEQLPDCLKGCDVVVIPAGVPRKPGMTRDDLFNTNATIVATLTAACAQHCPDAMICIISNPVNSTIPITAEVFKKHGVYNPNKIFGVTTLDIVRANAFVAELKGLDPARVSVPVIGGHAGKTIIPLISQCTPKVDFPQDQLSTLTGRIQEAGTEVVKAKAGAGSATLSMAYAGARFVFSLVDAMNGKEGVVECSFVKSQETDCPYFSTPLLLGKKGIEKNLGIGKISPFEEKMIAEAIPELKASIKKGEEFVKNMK
Method in brief: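 Fully refolded MDH, produced by a 45 min, 37 °C GroEL/ES reaction and stopped with EDTA, was then dosed with compound (62.5 μM–29 nM, 8 points, 3-fold). Activity was read as A340 NADH decrease until ~90% consumed; reported IC50s are means of at least quadruplicate runs.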

[1] = test system: Drug sensitive Staphylococcus aureus (ATCC 25923); assay: Bacterial proliferation assay, drug sensitive S. aureus; assay type: cell-based
Excerpt: (§1) Bacterial Strains: Enterococcus faecium—(Orla-Jensen) Schleifer and Kilpper-Balz strain NCTC 7171 (ATCC 19434); Drug sensitive Staphylococcus aureus—Rosenbranch strain Seattle 1945 (ATCC 25923); Methicillin resistant S. aureus (MRSA)—Rosenbach strain HPV107 (ATCC BAA-44); Klebsiella Pneumonia—(Schroeter) Trevisan strain NCTC 9633 (ATCC 13883); Acinetobacter baumannii—Bouvet and Grimont strain 2208 (ATCC 19606); Pseudomonas aeruginosa—(Schroeter) Migula strain NCTC 10332 (ATCC 10145); Enterobacter cloacae—E. cloacae, subsp. cloacae (Jordan) Hormaeche and Edwards strain CDC 442-68 (ATCC 13047).
(§2) Growth Media: All bacteria were grown in Brain Heart Infusion (BHI) broth/agar (Becton, Dickinson and Company). All liquid cultures were grown in BHI media supplemented with 25 mg/L Ca^2+ and 12.5 mg/L Mg^2+ to mimic free physiological concentrations of these cations. A 10 mg/mL Ca^2+ stock solution was prepared by dissolving 3.68 g of CaCl2.2H2O in 100 mL of deionized water, and a 10 mg/mL Mg^2+ stock solution was prepared by dissolving 8.36 g of MgCl2.6H2O in 100 mL deionized water. Both stock solutions were filter-sterilized using 0.2 μm pore size cellulose-acetate filters. 2.5 mL of the sterile 10 mg/mL Ca^2+ stock and 1.25 mL of the sterile 10 mg/mL Mg^2+ stock solutions were added per 1 L of autoclaved BHI medium to obtain 25 mg/L Ca^2+ and 12.5 mg/L Mg^2+ ions, respectively.
(§3) General Assay Protocol: Stock bacterial cultures were streaked onto BHI agar plates and grown overnight at 37° C. Fresh aliquots of broth were inoculated with single bacterial colonies and the cultures were grown overnight at 37° C. with shaking (240 rpm) in cation adjusted BHI media. The following morning, the overnight cultures were sub-cultured (1:5 dilution) into fresh aliquots of cation adjusted BHI media and grown at 37° C. for 1-2 hours with shaking. After 2 h, cultures were diluted into fresh media to achieve final OD600 readings of 0.017. Aliquots of these diluted cultures (30 μL) were added to clear, flat-bottom, 384-well polystyrene plates that were stamped with 0.5 μL of test compounds in 20 μL media. […] Plates were sealed with “Breathe Easy” oxygen permeable membranes (Diversified Biotech) and left to incubate at 37° C. without shaking (stagnant assay). OD600 nm readings were taken at either 6-8 h (S. aureus, MRSA, K. pneumonia, E. cloacae, and P. aeruginosa) or 24 h (E. faecium and A. baumannii). A second set of baseline control plates were prepared analogously, but without any bacteria added, to correct for possible compound absorbance and/or precipitation. Plates were then read at 600 nm using a Molecular Devices SpectraMax Plus384 microplate reader. […] Results presented represent the averages of EC50 values obtained from at quadriplicate (duplicate of duplicate) replicates.

[2] = test system: Klebsiella Pneumonia (ATCC 13883); assay: Bacterial proliferation assay, K. pneumoniae; assay type: cell-based
Excerpt: as §1, §2, §3

[3] = test system: Pseudomonas aeruginosa (ATCC 10145); assay: Bacterial proliferation assay, P. aeruginosa; assay type: cell-based
Excerpt: as §1, §2, §3

[4] = test system: Enterobacter cloacae (ATCC 13047); assay: Bacterial proliferation assay, E. cloacae; assay type: cell-based
Excerpt: as §1, §2, §3

[5] = log of IC50 (μM scale), with standard deviation, read-out: log(IC50) Native MDH Reporter (converted)
[6] = read-out: Biochemical Assay IC50 Native MDH Reporter
[7] = ATCC25923, OD600 at 6-8 h, read-out: Bacterial Proliferation EC50 S. aureus Sensitive
[8] = ATCC25923, log of EC50 (μM scale), with standard deviation, read-out: log(EC50) Bacterial Proliferation Assay S. aureus Sensitive (converted)
[9] = ATCC13883, OD600 at 6-8 h, read-out: Bacterial Proliferation EC50 K. pneumoniae
[10] = ATCC13883, log of EC50 (μM scale), with standard deviation, read-out: log(EC50) Bacterial Proliferation Assay K. pneumoniae (converted)
[11] = ATCC10145, OD600 at 6-8 h, read-out: Bacterial Proliferation EC50 P. aeruginosa
[12] = ATCC10145, log of EC50 (μM scale), with standard deviation, read-out: log(EC50) Bacterial Proliferation Assay P. aeruginosa (converted)
[13] = ATCC13047, OD600 at 6-8 h, read-out: Bacterial Proliferation EC50 E. cloacae
[14] = ATCC13047, log of EC50 (μM scale), with standard deviation, read-out: log(EC50) Bacterial Proliferation Assay E. cloacae (converted)

Row | Compound | IC50 (native MDH; [5]) | IC50 (native MDH; [6]) | EC50 [1, 7] | EC50 [1, 8] | EC50 [2, 9] | EC50 [2, 10] | EC50 [3, 11] | EC50 [3, 12] | EC50 [4, 13] | EC50 [4, 14]
1 | O=C(Nc1cccc(Cl)c1)c1cc(Br)cc(Br)c1 [Compound 23, 3,5-Dibromo-N-(3-chlorophenyl)benzamide] | > 63.1 µM | > 63 µM | 14 µM | 13.8 µM | > 100 µM | > 100 µM | > 100 µM | > 100 µM | > 100 µM | > 100 µM
2 | O=C(Nc1cccc(Cl)c1)c1cccc(Br)c1 [Compound 24, 3-Bromo-N-(3-chlorophenyl)benzamide] | > 63.1 µM | > 63 µM | 47 µM | 46.8 µM | > 100 µM | > 100 µM | > 100 µM | > 100 µM | > 100 µM | > 100 µM
3 | O=C(Nc1cccc(Cl)c1)c1ccccc1 [Compound 25, N-(3-Chlorophenyl)benzamide] | > 63.1 µM | > 63 µM | > 100 µM | > 100 µM | > 100 µM | > 100 µM | > 100 µM | > 100 µM | > 100 µM | > 100 µM
4 | O=C(Nc1ccccc1)c1cc(Br)cc(Br)c1 [Compound 26, 3,5-Dibromo-N-phenylbenzamide] | > 63.1 µM | > 63 µM | > 100 µM | > 100 µM | > 100 µM | > 100 µM | > 100 µM | > 100 µM | > 100 µM | > 100 µM
5 | O=C(Nc1ccccc1)c1cccc(Br)c1 [Compound 27, 3-Bromo-N-phenylbenzamide] | > 63.1 µM | > 63 µM | > 100 µM | > 100 µM | > 100 µM | > 100 µM | > 100 µM | > 100 µM | > 100 µM | > 100 µM
6 | COc1c(Br)cc(Br)cc1C(=O)Nc1ccc(Sc2nc3ccccc3s2)c(Cl)c1 [Compound 29, N-(4-(Benzo[d]thiazol-2-ylthio)-3-chlorophenyl)-3,5-dibromo-2-methoxybenzamide] | > 63.1 µM | > 63 µM | > 100 µM | > 100 µM | > 100 µM | > 100 µM | > 100 µM | > 100 µM | > 100 µM | > 100 µM
7 | COc1c(Br)cccc1C(=O)Nc1ccc(Sc2nc3ccccc3s2)c(Cl)c1 [Compound 30, N-(4-(Benzo[d]thiazol-2-ylthio)-3-chlorophenyl)-3-bromo-2-methoxybenzamide] | > 63.1 µM | > 63 µM | > 100 µM | > 100 µM | > 100 µM | > 100 µM | > 100 µM | > 100 µM | > 100 µM | > 100 µM
8 | COc1ccc(Br)cc1C(=O)Nc1ccc(Sc2nc3ccccc3s2)c(Cl)c1 [Compound 31, N-(4-(Benzo[d]thiazol-2-ylthio)-3-chlorophenyl)-5-bromo-2-methoxybenzamide] | > 63.1 µM | > 63 µM | > 100 µM | > 100 µM | > 100 µM | > 100 µM | > 100 µM | > 100 µM | > 100 µM | > 100 µM
9 | COc1ccccc1C(=O)Nc1ccc(Sc2nc3ccccc3s2)c(Cl)c1 [Compound 32, N-(4-(Benzo[d]thiazol-2-ylthio)-3-chlorophenyl)-2-methoxybenzamide] | > 63.1 µM | > 63 µM | > 100 µM | > 100 µM | > 100 µM | > 100 µM | > 100 µM | > 100 µM | > 100 µM | > 100 µM
10 | COc1c(Br)cc(Br)cc1C(=O)Nc1ccc(Sc2nc3ccccc3s2)cc1 [Compound 33, N-(4-(Benzo[d]thiazol-2-ylthio)phenyl)-3,5-dibromo-2-methoxybenzamide] | > 63.1 µM | > 63 µM | > 100 µM | > 100 µM | > 100 µM | > 100 µM | > 100 µM | > 100 µM | > 100 µM | > 100 µM
11 | COc1c(Br)cccc1C(=O)Nc1ccc(Sc2nc3ccccc3s2)cc1 [Compound 34, N-(4-(Benzo[d]thiazol-2-ylthio)phenyl)-3-bromo-2-methoxybenzamide] | > 63.1 µM | > 63 µM | > 100 µM | > 100 µM | > 100 µM | > 100 µM | > 100 µM | > 100 µM | > 100 µM | > 100 µM
12 | COc1ccc(Br)cc1C(=O)Nc1ccc(Sc2nc3ccccc3s2)cc1 [Compound 35, N-(4-(Benzo[d]thiazol-2-ylthio)phenyl)-5-bromo-2-methoxybenzamide] | > 63.1 µM | > 63 µM | > 100 µM | > 100 µM | > 100 µM | > 100 µM | > 100 µM | > 100 µM | > 100 µM | > 100 µM
13 | COc1ccccc1C(=O)Nc1ccc(Sc2nc3ccccc3s2)cc1 [Compound 36, N-(4-(Benzo[d]thiazol-2-ylthio)phenyl)-2-methoxybenzamide] | > 63.1 µM | > 63 µM | > 100 µM | > 100 µM | > 100 µM | > 100 µM | > 100 µM | > 100 µM | > 100 µM | > 100 µM
14 | COc1c(Br)cc(Br)cc1C(=O)Nc1cccc(Cl)c1 [Compound 37, 3,5-Dibromo-N-(3-chlorophenyl)-2-methoxybenzamide] | > 63.1 µM | > 63 µM | 46 µM | 45.7 µM | > 100 µM | > 100 µM | > 100 µM | > 100 µM | > 100 µM | > 100 µM
15 | COc1c(Br)cccc1C(=O)Nc1cccc(Cl)c1 [Compound 38] | > 63.1 µM | > 63 µM | > 100 µM | > 100 µM | > 100 µM | > 100 µM | > 100 µM | > 100 µM | > 100 µM | > 100 µM
16 | COc1ccc(Br)cc1C(=O)Nc1cccc(Cl)c1 [Compound 39, 5-Bromo-N-(3-chlorophenyl)-2-methoxybenzamide] | > 63.1 µM | > 63 µM | > 100 µM | > 100 µM | > 100 µM | > 100 µM | > 100 µM | > 100 µM | > 100 µM | > 100 µM
